# Data taken from patent US20210030005A1, “BENZOXABOROLE COMPOSITIONS HAVING A GROWTH ENHANCING EFFECT” (BORAGEN, INC., priority 2018, published 2021).
# Columns and labels:
# Tomato = conditions: Davis et al. 2003, cited from earlier work
# [1] = system: Asian Soybean Rust (Phakopsora pachyrhizi); assay: Field trial, Asian Soybean Rust severity on soybean; format: in vivo
# Procedure: (§1) In this example, diseased soybeans having Asian Soybean Rust (Phakopsora pachyrhizi) were treated with BAG8 and Azoxystrobin. Testing was performed to assess the fungicidal effect of the compounds on Asian Soybean Rust and to assess the growth enhancing effects of the compounds on the diseased soybeans.
# (§2) Soybeans were planted into 6×30 ft plots and replicated four times in a randomized complete block design. Two treatments and an untreated control were tested for efficacy against Asian Soybean Rust (Phakopsora pachyrhizi) and assessed for yield at the conclusion of the growing season. Foliar applications of the two treatments, BAG8 at 0.25 pounds of active ingredient per acre and azoxystrobin at 0.25 pounds of active ingredient per acre, were applied to the plots at two separate times: growth stage R1 (flowering) and growth stage R3 (bean pod formation). Best practices were used consistently across the test plots with regard to field conditions such as fertilization, insect control, weed control, and irrigation. Disease assessments were taken in each plot 28 days after the final foliar fungicide application. At maturity, each plot was harvested using standard harvesting equipment. After shelling, the beans were weighed at 13% moisture and yield calculations extrapolated to bushels per acre.
# (§3) Analysis of variance (ANOVA) was used to examine disease severity data and means were separated using Fisher's least significant difference (LSD) method at α=0.05. […]
# diseased soybeans = assay: Field trial, yield of diseased soybeans; format: in vivo, soybean
# Procedure: as §1, §2, §3
# [2] = system: Southern Rust of Maize (Puccinia polysora); assay: Field trial, Southern Rust of Maize severity on maize; format: in vivo
# Procedure: (§4) In this example, diseased maize having Southern Rust of Maize (Puccinia polysora) was treated with BAG8, Azoxystrobin, and Boscalid. Testing was performed to assess the fungicidal effect of the compounds on Southern Rust of Maize (Puccinia polysora) and to assess the growth enhancing effect of the compounds on the diseased maize.
# (§5) Maize was planted into 6×30 ft plots and replicated four times in a randomized complete block design. Three treatments and an untreated control were tested for efficacy against Southern Rust of Maize (Puccinia polysora) and assessed for yield at the conclusion of the growing season. Foliar applications of the three treatments, BAG8 at 0.25 pounds of active ingredient per acre, azoxystrobin at 0.25 pounds of active ingredient per acre, and boscalid at 0.24 pounds of active ingredient per acre, were applied to the plots at growth stage V8. Best practices were used consistently across the test plots with regard to field conditions such as fertilization, insect control, weed control, and irrigation. Disease assessments were taken in each plot 28 days after the foliar fungicide application. At maturity, each plot was harvested using standard harvesting equipment. After shelling, the kernels were weighed at 11% moisture and yield calculations extrapolated to bushels per acre.
# as §3
# diseased maize = assay: Field trial, yield of diseased maize; format: in vivo; conditions: for Yield: 11% moisture
# Procedure: as §4, §5, §3
compound,measurement,setting,value
OB(O)O [boric acid],yield and shelf-life of harvested tomatoes,Tomato,higher yield and longer shelf-life for harvested tomatoes
same,growth of the plant,Tomato; hydroponic fertilizer,"increased growth of the plant, plant parts, and plant propagation materials"
"CO/C=C(/C(=O)OC)c1ccccc1Oc1cc(Oc2ccccc2C#N)ncn1 [Azoxystrobin, reference compound]",reduced disease in comparison to untreated control,[1]; 0.25 lb ai/A foliar,66%
same,Disease Severity (% Leaf Coverage),"[1]; 0.25 lb ai/A foliar at R1 and R3, 28 days after final application",30.6 d % Leaf Coverage
same,increased soybean yield,diseased soybeans; 0.25 lb ai/A foliar,305%
same,Yield,"diseased soybeans; 0.25 lb ai/A foliar at R1 and R3, harvest at maturity, 13% moisture",59.2 a bu/A
same,reduced disease relative to the untreated control,[2]; 0.25 lb ai/A foliar,100%
same,Disease Severity (% Leaf Coverage),"[2]; 0.25 lb ai/A foliar at V8, 28 days after application",0.0 c % Leaf Coverage
same,increased yield relative to untreated control,diseased maize; 0.25 lb ai/A foliar,205%
same,Yield,"diseased maize; 0.25 lb ai/A foliar at V8, harvest at maturity",151.1 a bu/A
O=C(Nc1ccccc1-c1ccc(Cl)cc1)c1cccnc1Cl [Boscalid],Disease Severity (% Leaf Coverage),"[2]; 0.24 lb ai/A foliar at V8, 28 days after application",25.1 b % Leaf Coverage
same,Yield,"diseased maize; 0.24 lb ai/A foliar at V8, harvest at maturity",91.6 c bu/A
